Values of other authors in EP4046639A1, “PREVENTION OF PULMONARY VASCULAR LEAK IN COVID-19” (priority 2021, dated 2022).
Like-named read-outs stand apart in the source and are kept apart here.

Test system: Covid-19

## C[C@@H]1C[C@H]2[C@@H]3CCC4=CC(=O)C=C[C@]4(C)[C@@]3(F)[C@@H](O)C[C@]2(C)[C@@]1(O)C(=O)CO [Dexamethason]
Hospitalized patients, reduced from 24
  Covid-19 mortality: 20%
Patients in the intensive care unit (ICU), reduced from 40
  Covid-19 mortality: 30%
